From paper PMC4102417 (PLoS Neglected Tropical Diseases, 2014)
Structures can show the parent of a compound that is named as a salt. Where two headings read alike, the source gives them in different places.

Assays:
[1] = tested on: T. cruzi (Tulahuen strain); experiment: microbe, parasite or virus in culture; assay type: cell-based, Trypanosoma cruzi; settings: for activity at 10 µM: 120 h, read-out: T. cruzi % growth @ 10 uM (Amastigotes); for EC50: read-out: T. cruzi EC50
Description: Compounds were tested against T. cruzi (Tulahuen strain) stably expressing the beta-galactosidase gene as previously described. […] Fibroblasts were plated at a density of 2×10^3 per well in 96 well tissue culture plates. After 24 hours of incubation, 1×10^4 trypomastigotes/well were added to the fibroblasts and incubated for 4 hours before addition of the test compounds from the Spectrum Collection (10 µM final concentration). Cultures were incubated at 37°C for 5 days, then developed with chlorophenol red β-D-galactopyranoside as previously described. The percent inhibition is reported with standard deviation of the mean. […] Z-prime values were calculated for each 96-well plate based on positive (4 wells) and negative controls (4 wells).

3T3 fibroblast cells = experiment: cells; assay type: cell-based, murine; settings: for activity at 10 µM: Mus musculus, NIH3T3, 72 h, read-out: Mammalian (3T3) cell % growth at 10 uM
[2] = Trypanosoma cruzi, TULAHUEN, Fibroblast, 10 uM, Table S2
[3] = Trypanosoma cruzi, TULAHUEN, Fibroblast, Table S2, amastigotes
[4] = Trypanosoma cruzi, TULAHUEN, Fibroblast

SMILES	activity at 10 µM [1, 2] [%]	activity at 10 µM (3T3 fibroblast cells; 10 uM, Table S2) [%]	other results
Clc1ccccc1C(c1ccccc1)(c1ccccc1)n1ccnc1 [CLOTRIMAZOLE, 1-[(2-chlorophenyl)diphenylmethyl]-1H-imidazole]	10.2	100	
O=c1c(O)c(-c2ccccc2)oc2cccc(O)c12 [3,5-DIHYDROXYFLAVONE]	12.3	99.6	
CCN(CC)C(=S)SSC(=S)N(CC)CC [N,N-diethyl[(diethylcarbamothioyl)disulfanyl]carbothioamide]			activity at 10 µM ([1]; Trypanosoma cruzi, TULAHUEN, Fibroblast, 10 uM, Table S1): 0.3%; activity at 10 µM (3T3 fibroblast cells; 10 uM, Table S1): 0.1%
COc1ccc(Cc2nccc3cc(OC)c(OC)cc23)cc1OC [PAPAVERINE, 1-[(3,4-dimethoxyphenyl)methyl]-6,7-dimethoxyisoquinoline hydrochloride]	8.4	93.1	
Nc1nc(=S)c2[nH]cnc2[nH]1 [THIOGUANINE, 2-amino-6,7-dihydro-3H-purine-6-thione]	14.8	98.3	
COc1c(C)c2c(c(O)c1CC=C(C)CCC(=O)O)C(=O)OC2 [MYCOPHENOLIC ACID, 6-(4-hydroxy-6-methoxy-7-methyl-3-oxo-1,3-dihydro-2-benzofuran-5-yl)-4-methylhex-4-enoic acid]	12.2	97.2	EC50 [1, 3]: 0.32 µM
COc1ccc2c(c1)[nH]c1c(C)nccc12 [HARMINE, 7-methoxy-1-methyl-9H-pyrido[3,4-b]indole]	7.5	87.2	
NC(=O)c1cc([N+](=O)[O-])cc([N+](=O)[O-])c1 [NITROMIDE, 3,5-dinitrobenzamide]			T. cruzi % growth @ 10 uM (Amastigotes) ([1]; 10 uM, Table S2): 1.9%; EC50 ([1]; Table S2, amastigotes): 4.8 µM; Mammalian (3T3) cell % growth at 10 uM (3T3 fibroblast cells; 10 uM, Table S2): 97.2%
COc1ccc(-c2cc(=O)c3c(O)cc(O)cc3o2)cc1 [ACACETIN, 5,7-dihydroxy-2-(4-methoxyphenyl)-4H-chromen-4-one]	23.1	77.4	
C#C[C@]1(O)CC[C@H]2[C@@H]3CCC4=Cc5oncc5C[C@]4(C)[C@H]3CC[C@@]21C [DANAZOL, (1S,2R,13R,14S,17R,18S)-17-ethynyl-2,18-dimethyl-7-oxa-6-azapentacyclo[11.7.0.0^{2,10}.0^{4,8}.0^{14,18}]icosa-4(8),5,9-trien-17-ol]	0.9	90.2	EC50 [1, 3]: 6.97 µM
CC12C=CC(=O)C=C1CCC1C2CCC2(C)C(=O)CCC12 (stereo not drawn) [ANDROSTA-1,4-DIEN-3,17-DIONE, 2,15-dimethyltetracyclo[8.7.0.0^{2,7}.0^{11,15}]heptadeca-3,6-diene-5,14-dione]	25.1	72.1	
CCOC(=O)C(CCc1ccccc1)NC1CCc2ccccc2N(CC(=O)O)C1=O (stereo not drawn) [BENAZEPRIL HYDROCHLORIDE, 2-{3-[(1-ethoxy-1-oxo-4-phenylbutan-2-yl)amino]-2-oxo-2,3,4,5-tetrahydro-1H-1-benzazepin-1-yl}acetic acid hydrochloride]	1	66.8	
Oc1ccc(O)cc1 [HYDROQUINONE, benzene-1,4-diol]			activity at 10 µM [1, 4]: 22.6%; activity at 10 µM (3T3 fibroblast cells): 93.9%
CC(C)CC1C(=O)N2CCCC2C2(O)OC(NC(=O)C3C=C4c5cccc6[nH]c(Br)c(c56)CC4N(C)C3)(C(C)C)C(=O)N12 (stereo not drawn) [BROMOCRIPTINE MESYLATE, 10-bromo-N-[2-hydroxy-7-(2-methylpropyl)-5,8-dioxo-4-(propan-2-yl)-3-oxa-6,9-diazatricyclo[7.3.0.0^{2,6}]dodecan-4-yl]-6-methyl-6,11-diazatetracyclo[7.6.1.0^{2,7}.0^{12,16}]hexadeca-1(15),2,9,12(16),13-pentaene-4-carboxamide; methanesulfonic acid]	2	92.1	
CCCC(C(=O)OCCN(CC)CC)(c1ccccc1)c1ccccc1 [PROADIFEN, 2-(diethylamino)ethyl 2,2-diphenylpentanoate]	2.1	100	
C=CC(C)(O)CCC1C(=C)CCC2C(C)(CO)CCCC12C (stereo not drawn) [EPI(13)TORULOSOL, 5-[5-(hydroxymethyl)-5,8a-dimethyl-2-methylidene-decahydronaphthalen-1-yl]-3-methylpent-1-en-3-ol]	14.5	86.1	

SMILES	activity at 10 µM [1, 2] [%]	activity at 10 µM (3T3 fibroblast cells; 10 uM, Table S2) [%]	other results
CCCCc1oc2ccccc2c1C(=O)c1cc(I)c(OCCN(CC)CC)c(I)c1 [Amiodarone, (2-{4-[(2-butyl-1-benzofuran-3-yl)carbonyl]-2,6-diiodophenoxy}ethyl)diethylamine hydrochloride]		86.7	
CCCCCCCCCCCCCC(=O)O[C@@H]1[C@@H](C)[C@@]2(O)[C@@H](C=C(CO)C[C@]3(O)C(=O)C(C)=C[C@@H]23)[C@@H]2C(C)(C)[C@]12OC(C)=O [PHORBOL MYRISTATE ACETATE, (1S,2S,6R,10S,11R,13S,14R,15R)-13-(acetyloxy)-1,6-dihydroxy-8-(hydroxymethyl)-4,12,12,15-tetramethyl-5-oxotetracyclo[8.5.0.0^{2,6}.0^{11,13}]pentadeca-3,8-dien-14-yl tetradecanoate]	5.6	89.2	
COC(=O)C1(C)CCCC2(C)c3ccc(C(C)C)cc3C(=O)CC12 (stereo not drawn) [7-OXOC[…], METHYL ESTER, methyl 1,4a-dimethyl-9-oxo-7-(propan-2-yl)-1,2,3,4,4a,9,10,10a-octahydrophenanthrene-1-carboxylate]	5.1	91.8	
O=c1cc(-c2ccc(O)cc2)oc2cc(O)cc(O)c12 [APIGENIN, 5,7-dihydroxy-2-(4-hydroxyphenyl)-4H-chromen-4-one]	17.7	73.6	
CC(C1OC(C)(C)C(O)C1O)C1CCC2(C)C3=CCC4C(C)(C)C(=O)CCC4(C)C3CCC12C (stereo not drawn) [ODORATONE, 14-[1-(3,4-dihydroxy-5,5-dimethyloxolan-2-yl)ethyl]-2,6,6,11,15-pentamethyltetracyclo[8.7.0.0^{2,7}.0^{11,15}]heptadec-9-en-5-one]	9.9	92.7	
CCC(=O)O[C@H]1CC[C@H]2[C@@H]3CCc4cc(O)ccc4[C@H]3CC[C@]12C [ESTRADIOL PROPIONATE, (1S,10R,11S,14S,15S)-5-hydroxy-15-methyltetracyclo[8.7.0.0^{2,7}.0^{11,15}]heptadeca-2,4,6-trien-14-yl propanoate]	20.3	100	
O=c1c(-c2cc(O)c(O)c(O)c2)coc2cc(O)c(O)c(O)c12 [IRIGENOL, 5,6,7-trihydroxy-3-(3,4,5-trihydroxyphenyl)-4H-chromen-4-one]	5.7	73.7	
COC(=O)C1=C(C)NC(C)=C(C(=O)OCCN(C)Cc2ccccc2)C1c1cccc([N+](=O)[O-])c1 (stereo not drawn) [NICARDIPINE, 3-{2-[benzyl(methyl)amino]ethyl} 5-methyl 2,6-dimethyl-4-(3-nitrophenyl)-1,4-dihydropyridine-3,5-dicarboxylate]	2	99.8	EC50 [1, 3]: 5.85 µM; EC50 [1, 4]: 5.9 µM
OCCN1CCN(CCCN2c3ccccc3Sc3ccc(C(F)(F)F)cc32)CC1 [FLUPHENAZINE, 2-(4-{3-[2-(trifluoromethyl)-10H-phenothiazin-10-yl]propyl}piperazin-1-yl)ethan-1-ol]	2.2	100	
CC(=O)[C@H]1CC[C@H]2[C@@H]3CC[C@H]4C[C@@H](O)CC[C@]4(C)[C@H]3CC[C@]12C [ALLOPREGNANOLONE, 1-[(1S,2S,5S,7S,10R,11S,14S,15S)-5-hydroxy-2,15-dimethyltetracyclo[8.7.0.0^{2,7}.0^{11,15}]heptadecan-14-yl]ethan-1-one]	3.7	100	
O=C(O)CC[N+](=O)[O-] [BOVINOCIDIN, 3-nitropropanoic acid]	14.1		activity at 10 µM (3T3 fibroblast cells): 88.6%
CC(=O)OC1CCC2(C)C(CC(OC(C)=O)C3(C)C2CCC2(C)C(c4ccoc4)OC(=O)C4OC423)C1(C)C (stereo not drawn) [3beta-ACETOXYDEOXODIHYDROGEDUNIN, 15-(acetyloxy)-7-(furan-3-yl)-1,8,12,16,16-pentamethyl-5-oxo-3,6-dioxapentacyclo[9.8.0.0^{2,4}.0^{2,8}.0^{12,17}]nonadecan-19-yl acetate]	7	96.7	
CNCCC(Oc1ccc(C(F)(F)F)cc1)c1ccccc1 (stereo not drawn) [Fluoxetine, methyl({3-phenyl-3-[4-(trifluoromethyl)phenoxy]propyl})amine hydrochloride]		100	
CN(C)CCCN1c2ccccc2CCc2ccc(Cl)cc21 [Clomipramine, (3-{5-chloro-2-azatricyclo[9.4.0.0^{3,8}]pentadeca-1(15),3,5,7,11,13-hexaen-2-yl}propyl)dimethylamine hydrochloride]		84.6	
CNC1CCC(c2ccc(Cl)c(Cl)c2)c2ccccc21 (stereo not drawn) [Sertraline, 4-(3,4-dichlorophenyl)-N-methyl-1,2,3,4-tetrahydronaphthalen-1-amine hydrochloride]		100	
